Assay results from patent publication US5948814A, “Genistein for the treatment of cystic fibrosis” (priority 1998, dated 1999).

What was measured:
[1] = molecular target: T1, ΔF508-CFTR (Homo sapiens, UniProt P13569, DEL508-508); assay: CFTR gating in excised inside-out patches, NIH/3T3-ΔF508 cells; details: ATP without genistein; stated for both wt- and ΔF508-CFTR
Description: (§1) FIGS. 9A and B are recordings of the effects of genistein on CFTR gating in excised inside-out patches from NIH/3T3-CFTR or NIH/3T3-ΔF508 cells. CFTR channels were activated by 10 μM forskolin +20 nM calyculin A before excision into an inside-out configuration. Presence of calyculin A helps to slow channel dephosphorylation. (A): continuous 14.5 minute recording of a patch containing wt-CFTR. Expanded traces are 22 seconds in length. ATP (500 μM) with or without 20 μM genistein was present as indicated. (B): 2 traces of 44 seconds in length of an excised inside-out patch with CFTR-ΔF508.
(§2) Electrophysiology: CFTR channel currents were recorded at room temperature (~22° C.) with a patch-clamp amplifier (EPC-9, Heka Electronic), filtered at 100 Hz with a built-in three-pole Bessel filter, and stored on videotapes. Data were subsequently refiltered at 25 Hz with an eight-pole Bessel filter (Frequency Device, Havervill, Mass.) and captured onto a hard disk at a sampling rate of 50 Hz. […] Patch-clamp electrodes were made from Corning 7052 glass capillaries (Warner Instrument, Hammed, Conn.). The pipette resistance was usually 3-5 M.OMEGA., and the seal resistance was >20 G.OMEGA.. The pipette solution contained (in mM) 140 N-methyl-D-glucamine chloride (NMDG-C1), 2 MgCl2, 5Ca Cl2, and 10 HEPES (pH 7.4 with NMDG). The superfusion solution contained (in mM) 150 […], 2 MgCl2, 1 EGTA, 5 glucose, and 5 HEPES (pH 7.4 with NaOH). In excised inside-out patch experiments, the bath solution contained (in mM) 130 MNDG-Cl, 10 EGTA, 10 HEPES, 20 tetraethylammonium chloride, 8 Tris, and 2 MgCl2 (pH 7.4 with NMDG). Pipette potential was held at 50 mV relative to the bath. Downward deflections represent channel opening.
(§3) Channels were first activated in cell-attached patches with forskolin plus calyculin A, a membrane-permeant phosphatase inhibitor [Suganuma et al., 1991]. Patches were then excised into an inside-out configuration.

[2] = molecular target: wt-CFTR (Homo sapiens, UniProt P13569); details: ATP without genistein; stated for both wt- and ΔF508-CFTR
wt-CFTR, sequence (P13569 whole entry): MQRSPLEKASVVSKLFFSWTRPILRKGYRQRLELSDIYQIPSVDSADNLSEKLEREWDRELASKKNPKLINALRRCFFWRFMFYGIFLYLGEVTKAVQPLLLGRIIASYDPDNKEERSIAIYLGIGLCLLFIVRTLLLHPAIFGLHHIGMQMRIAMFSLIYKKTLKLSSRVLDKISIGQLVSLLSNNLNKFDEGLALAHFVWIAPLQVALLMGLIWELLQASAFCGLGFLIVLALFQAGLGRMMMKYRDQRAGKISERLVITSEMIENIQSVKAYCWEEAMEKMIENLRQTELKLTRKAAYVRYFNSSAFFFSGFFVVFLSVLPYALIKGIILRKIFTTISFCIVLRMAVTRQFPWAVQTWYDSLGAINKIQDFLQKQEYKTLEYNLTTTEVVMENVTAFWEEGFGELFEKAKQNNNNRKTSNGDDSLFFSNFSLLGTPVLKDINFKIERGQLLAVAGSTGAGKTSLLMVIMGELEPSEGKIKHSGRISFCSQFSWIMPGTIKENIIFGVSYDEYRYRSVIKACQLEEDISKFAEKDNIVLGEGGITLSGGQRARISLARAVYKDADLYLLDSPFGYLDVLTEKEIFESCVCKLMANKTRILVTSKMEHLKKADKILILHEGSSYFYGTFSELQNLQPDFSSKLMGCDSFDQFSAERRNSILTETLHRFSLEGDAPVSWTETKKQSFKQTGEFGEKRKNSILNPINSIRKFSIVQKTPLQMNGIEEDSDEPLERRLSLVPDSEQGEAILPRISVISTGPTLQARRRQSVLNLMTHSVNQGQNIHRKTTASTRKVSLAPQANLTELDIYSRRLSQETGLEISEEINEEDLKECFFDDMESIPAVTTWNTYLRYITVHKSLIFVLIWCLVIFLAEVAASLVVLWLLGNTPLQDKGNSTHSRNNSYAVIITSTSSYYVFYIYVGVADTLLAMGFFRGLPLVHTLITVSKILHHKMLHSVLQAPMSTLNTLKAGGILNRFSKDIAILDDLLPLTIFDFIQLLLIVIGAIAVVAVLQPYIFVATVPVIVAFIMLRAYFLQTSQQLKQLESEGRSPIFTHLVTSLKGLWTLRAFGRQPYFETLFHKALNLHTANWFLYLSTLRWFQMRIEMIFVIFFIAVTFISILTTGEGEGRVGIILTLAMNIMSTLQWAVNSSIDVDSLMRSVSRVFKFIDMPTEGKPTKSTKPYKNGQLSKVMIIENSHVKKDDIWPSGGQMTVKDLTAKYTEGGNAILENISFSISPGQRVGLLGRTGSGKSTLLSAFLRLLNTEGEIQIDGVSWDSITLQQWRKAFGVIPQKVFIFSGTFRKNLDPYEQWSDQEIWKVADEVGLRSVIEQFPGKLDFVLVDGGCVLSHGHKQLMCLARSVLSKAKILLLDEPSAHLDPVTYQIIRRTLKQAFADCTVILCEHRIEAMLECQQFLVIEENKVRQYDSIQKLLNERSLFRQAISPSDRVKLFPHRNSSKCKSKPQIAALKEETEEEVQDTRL
Description: as §1, §2, §3

[3] = molecular target: T1, ΔF508-CFTR; assay: Patch clamp, cell-attached patches, macroscopic current, NIH/3T3-ΔF508 cells; details: 200 μM CPT-cAMP after 10 μM forskolin
Description: FIGS. 3A and B show recordings of the potentiation of wild-type (wt) and ΔF508-CFTR channel activity by genistein. Channels in cell-attached patches from NIH/3T3-CFTR (FIG. 3A) and NIH/3T3-ΔF508cells (FIG. 3B), were stimulated as indicated with 10 μM forskolin and 50μ genestein.
Cell culture: NIH/3T3-CFTR, NIH/3T3-ΔF508, and NIH/3T3 mock cells (generous gifts from Dr. Richard Mulligan of Children's Hospital and Medical Center, Harvard Medical School) were grown as described [Bradbury et al., 1992] at 37° C. and 5% CO2 in Dulbecco's modified Eagle's medium-H21 supplemented with 10% new-born calf serum, 4 mM glutamine, 25 mM glucose, 100 μg/ml penicillin, 100 μg/ml streptomycin, and 50 μg/ml gentamicin. Cells were maintained in T75 flasks, passaged at 90-95% confluency, and split one to four. For measurements of I^- efflux and in vivo phosphorylation, cells were seeded onto 35-mm dishes at […]. For patch-clamp experiments, cells were grown on coverglass chips in 35-mm culture dishes. Media were replaced 24 hours after plating and thereafter every 48 hours. In all cases, media were changed on the day before I^- efflux studies, NIH/3T3-ΔF508 cells were transferred to 27° C. three days before use, and 1 day prior to study, media were supplemented with 5 mM butyrate. For patch-clamp studies, where a constant level of functional ΔF508-CFTR was not essential, NIH/3T3-ΔF508 cells were cultured at 27° C. for 2-6 days before use. Calu-3 cells were grown and maintained as described by Hunter [1995].
as §2, with “In excised inside-out patch experiments, the bath solution contained (in mM) 130 MNDG-Cl, 10 EGTA, 10 HEPES, 20 tetraethylammonium chloride, 8 Tris, and 2 MgCl2 (pH 7.4 with NMDG). Pipette potential was held at 50 mV relative to the bath. Downward deflections represent channel opening.” left out
Statistics: Mean currents and variance were estimated with Igor (Wavemetrics, Lake Oswego, Oreg.). […] Po was calculated from patches containing a single channel by dividing the open channel current amplitude with the mean-current amplitude. […] Calculated values are presented as means±SE. […]

[4] = molecular target: T1, ΔF508-CFTR; assay: Other protein tyrosine kinase inhibitors, activation of ΔF508-CFTR; assay type: cell-based; set-up: expressed in transfected cells; host or cells: NIH/3T3 cells, stably transfected (NIH/3T3-ΔF508, gift of Dr. Richard Mulligan); details: for activation of ΔF508-CFTR: methodology of Example 1
[5] = test system: CFTR; assay: Other protein tyrosine kinase inhibitors, enhancement of CFTR activity; assay type: cell-based; details: methodology of Example 1
Description: Based on the results of Example 1 other protein tyrosine kinase inhibitors were tested using the methodology of Example 1.

T1 sequence (P13569 with tags, fused parts or gaps DEL508-508): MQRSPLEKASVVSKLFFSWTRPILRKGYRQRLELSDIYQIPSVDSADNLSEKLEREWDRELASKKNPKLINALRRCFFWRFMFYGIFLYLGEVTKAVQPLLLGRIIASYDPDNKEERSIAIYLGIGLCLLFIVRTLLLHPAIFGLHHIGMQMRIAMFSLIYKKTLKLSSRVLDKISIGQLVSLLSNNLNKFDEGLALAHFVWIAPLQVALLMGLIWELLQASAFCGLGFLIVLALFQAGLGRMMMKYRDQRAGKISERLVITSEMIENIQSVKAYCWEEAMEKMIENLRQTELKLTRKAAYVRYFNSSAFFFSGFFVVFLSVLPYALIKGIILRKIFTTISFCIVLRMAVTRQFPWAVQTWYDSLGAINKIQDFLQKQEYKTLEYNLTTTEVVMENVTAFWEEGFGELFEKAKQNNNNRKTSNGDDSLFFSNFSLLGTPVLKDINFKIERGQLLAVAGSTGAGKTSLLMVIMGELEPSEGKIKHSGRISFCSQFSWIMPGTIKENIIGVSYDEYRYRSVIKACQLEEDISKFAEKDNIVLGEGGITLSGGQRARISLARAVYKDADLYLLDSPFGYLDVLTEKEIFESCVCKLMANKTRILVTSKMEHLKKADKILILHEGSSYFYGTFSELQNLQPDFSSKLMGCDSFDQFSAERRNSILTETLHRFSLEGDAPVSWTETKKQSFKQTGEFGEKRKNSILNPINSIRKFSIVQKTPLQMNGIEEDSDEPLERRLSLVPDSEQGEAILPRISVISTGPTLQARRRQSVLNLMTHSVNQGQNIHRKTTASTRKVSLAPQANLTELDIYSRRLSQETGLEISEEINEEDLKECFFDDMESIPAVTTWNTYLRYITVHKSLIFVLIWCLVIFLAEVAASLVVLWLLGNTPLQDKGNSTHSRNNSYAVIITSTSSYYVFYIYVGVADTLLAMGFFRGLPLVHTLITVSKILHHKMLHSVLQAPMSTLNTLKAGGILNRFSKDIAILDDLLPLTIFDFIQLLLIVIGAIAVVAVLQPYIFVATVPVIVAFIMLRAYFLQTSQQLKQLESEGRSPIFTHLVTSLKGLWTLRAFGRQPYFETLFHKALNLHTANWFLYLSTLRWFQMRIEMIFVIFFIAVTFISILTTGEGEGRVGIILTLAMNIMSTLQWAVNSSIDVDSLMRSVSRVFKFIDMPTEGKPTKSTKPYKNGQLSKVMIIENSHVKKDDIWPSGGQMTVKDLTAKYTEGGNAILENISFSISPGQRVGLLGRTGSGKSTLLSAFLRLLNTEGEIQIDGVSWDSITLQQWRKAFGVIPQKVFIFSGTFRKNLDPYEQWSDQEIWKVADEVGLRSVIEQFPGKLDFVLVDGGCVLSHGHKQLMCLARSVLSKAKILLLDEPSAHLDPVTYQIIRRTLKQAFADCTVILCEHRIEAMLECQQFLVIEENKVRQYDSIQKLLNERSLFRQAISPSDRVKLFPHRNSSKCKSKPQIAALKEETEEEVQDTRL

Row | Compound | activation of ΔF508-CFTR [4] | other results
1 | Nc1ncnc2c1ncn2[C@@H]1O[C@H](COP(=O)(O)OP(=O)(O)OP(=O)(O)O)[C@@H](O)[C@H]1O [ATP, reference compound] |  | channel open time [1]: 302±2 milliseconds; channel open time [2]: 302±2 milliseconds
2 | Nc1ncnc2c1nc(Sc1ccc(Cl)cc1)n2[C@@H]1O[C@@H]2COP(=O)(O)O[C@H]2[C@H]1O [CPT-cAMP, 8-(4-chlorophenylthio)-cAMP, reference compound] |  | effect on mean-current amplitude of forskolin-stimulated cells [3]: failed to increase the mean-current amplitude
3 | CC(=O)OCOC(c1ccc2ccccc2c1)P(=O)(OCOC(C)=O)OCOC(C)=O (stereo not drawn) [HNMP-A (AM)^3] | failed to activate ΔF508-CFTR | 
4 | Cc1ccc(-c2nn(C(C)(C)C)c3ncnc(N)c23)cc1 [PP1] | failed to activate ΔF508-CFTR | 
5 | CCOc1cc(C=C(C#N)C(N)=O)cc(CSc2ccccc2)c1O [ST638] | failed to activate ΔF508-CFTR | 
6 | Nc1ccc(-c2cc(=O)c3cc(O)ccc3o2)cc1 [aminogenistein, 4'-amino-6-hydroxyflavone] |  | ΔF508-CFTR stimulation activity among protein tyrosine kinase inhibitors [4]: is the only protein tyrosine kinase inhibitor that has such an effect
7 | O=c1c(-c2ccc(O)cc2)coc2cc(O)ccc12 [daidzein] | failed to activate ΔF508-CFTR | 
8 | COc1c(C=O)c(O)cc2c1C(=O)c1ccccc1C2=O [damnacanthal] | failed to activate ΔF508-CFTR | 
9 | Cc1cc(O)c2c(c1)C(=O)c1cc(O)cc(O)c1C2=O [emodin] | failed to activate ΔF508-CFTR | 
10 | COC(=O)/C=C/c1cc(O)ccc1O [erbstatin analogue] | failed to activate ΔF508-CFTR | 
11 | COC1=C2C[C@@H](C)C[C@H](OC)[C@H](O)[C@@H](C)/C=C(\C)[C@H](OC(N)=O)[C@@H](OC)/C=C\C=C(/C)C(=O)NC(=CC1=O)C2=O [geldanamycin] | failed to activate ΔF508-CFTR | 
12 | COC1C=CC=C(C)C(=O)NC2=CC(=O)C=C(C2=O)C(OC)C(C)CC(OC)C(OC)C(C)C=C(C)C1OC(N)=O (stereo not drawn) [herbimycin A] | failed to activate ΔF508-CFTR | 
13 | O=C(O)c1cc(N(Cc2ccccc2O)Cc2cc(O)ccc2O)ccc1O [lavendustin A] | failed to activate ΔF508-CFTR | 
14 | O=C(O)c1cc(N(Cc2ccccc2O)Cc2ccccc2O)ccc1O [lavendustin B] | failed to activate ΔF508-CFTR | 
15 | COC(=O)c1cc(NCc2cc(O)ccc2O)ccc1O [lavendustin C methyl ester] | failed to activate ΔF508-CFTR | 
16 | Oc1cc(O)cc(/C=C/c2ccc(O)c(O)c2)c1 [piceatannol] | failed to activate ΔF508-CFTR | 
17 | O=c1c(O)c(-c2ccc(O)c(O)c2)oc2cc(O)cc(O)c12 [quercetin] |  | enhancement of CFTR activity [5]: failed to enhance CFTR activity
